The results in this text go back to patent publication US6544727B1, “Methods and devices for the removal of psoralens from blood products” (Cerus Corporation, priority 1995, dated 2003).

The subject of data set [1] is R17 bacteriophage. In words: R17 bacteriophage inactivation assay, varying compound concentration. The data set is classed as cell-based. The conditions noted are these: for R17 inactivation efficiency compared with AMT or 8-MOP (in words): varying concentration, Tables 6-9, FIGS. 6-10. The method in brief:
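R17 phage (10^9/mL in DMEM with 15% FBS) mixed with compound at 4–320 μM and irradiated 1–10 min. Surviving phage titred by serial dilution and plaque assay on Hfr 3000 bacteria after overnight incubation at 37 °C; controls were untreated phage, UV without compound, and compound without irradiation.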

In data set [2] the test system is p-selectin (GMP140). In words: GMP-140 (p-selectin) expression on platelets, flow cytometry with CD62. The data set is classed as cell-based, human. As to conditions: 100 μM compound, 5 Joules/cm^2, 5 days storage; FIGS. 21C-24C. Here is the method: To measure the effects of the present compounds and methods of decontamination on platelet function using these four indicators, four samples were prepared for each compound tested, two control samples and two containing compound. Three units of human platelets were obtained from the Sacramento Blood Center, Sacramento, Calif. These were each transferred under sterile conditions to 50 ml centrifuge tubes, then aliquots of each unit were transferred into a second set of 50 ml sterile centrifuge tubes. To each centrifuge tube containing platelet concentrate (PC), an aliquot of compound stock was added to reach a final concentration of 100 μM of compound. […] The samples were pipetted gently up and down to mix. Then aliquots (either 3 ml or 8 ml) of each sample was transferred to two sterile Teflon™ Medi-bags™ (American Fluoroseal Co., Silver Springs, Md.) (presently owned by The West Company, Lionville, Pa.). Samples were treated in one of two different sized bags, having either 3 ml or 8 ml capacity. […] For each compound tested, two control samples without compound were prepared by again removing aliquots of platelet concentrate (17 ml if using an 8 ml bag, […] if using a 3 ml bag) from the same one of the first set of 50 ml centrifuge tubes from which the compound sample was drawn, and dividing into Medibags, as before. One of each pair of Medibags containing a compound, and one of each pair of control Medibags, were illuminated for 5 Joules/cm^2 on the device described in Example 1, above. Then all experimental and control Medibags were placed on a platelet shaker for storage for 5 days. The same experiments were repeated several times to obtain more statistically meaningful data, as represented by “n”, the number of data points represented, in the graphs of FIGS. 21-24, discussed below.

Data set [3] deals with Salmonella tester strain TA98. The data set is described as follows: Ames test, strain TA98. The protocol:
In this example the compounds of the present invention are tested for their dark mutagenicity using an Ames assay. The procedures used for the Salmonella mutagenicity test as described in detail by Maron and Ames were followed exactly. Maron, D. M. and B. N. Ames, Mutation Research 113: 173 ( 1983). A brief description for each procedure is given here. The tester strains TA97a, TA98, TA100, TA102, TA1537 and TA1538 were obtained from Dr. Ames. TA97a, TA98, TA1537 and TA1538 are frameshift tester strains. TA100 and TA102 are base-substitution tester strains. Upon receipt each strain was cultured under a variety of conditions to confirm the genotypes specific to the strains.
The first tests done with the strains were to determine the range of spontaneous reversion for each of the strains. With each mutagenicity experiment the spontaneous reversion of the tester strains to histidine independence was measured and expressed as the number of spontaneous revertants per plate. This served as the background controls.
For all experiments, the pre-incubation procedure was used. In this procedure one vial of each tester strain was thawed and 20 μL of this culture was added to 6 mL of Oxoid Nutrient Broth #2. This solution was allowed to shake for 10 hours at 37° C. In the pre-incubation procedure, 0.1 mL of this overnight culture was added to each of the required number of sterile test tubes. To half of the tubes 0.5 mL of a 10% S-9 solution containing Aroclor 1254 induced rat liver extract (Molecular Toxicology Inc., Annapolis, Md.), and MgCl2, KCl, glucose-6-phosphate, NADP, and sodium phosphate buffer (Sigma, St. Louis, Mo.) were added. To the other half of the tubes 0.5 mL of 0.2M sodium phospate buffer, pH 7.4, was used in place of the S-9 mixture (the—S9samples). […] The 0.7 mL mixture was vortexed and then pre-incubated while shaking for 20 minutes at 37° C. After shaking, 2 mL of molten top agar supplemented with histidine and biotin were added to the 0.7 mL mixture and immediately poured onto a minimal glucose agar plate (volume of base agar was 20 mL). The top agar was allowed 30 minutes to solidify and then the plates were inverted and incubated for 44 hours at 37° C. After incubation the number of revertant colonies on each plate were counted. […] (“n” represents the number of replicates performed for each data point.)

Setting [4] is: 16 μM, starting titer approx. 7.1 logs, 1 minute irradiation (Table 9).
Setting [5] is: 16 μM, starting titer approx. 7.1 logs, 1 minute irradiation = 1.2 J/cm^2 (Table 8).
The mark [6] stands for this setting: 32 μM, starting titer approx. 7.1 logs, 1 minute irradiation = 1.2 J/cm^2 (Table 8).
[7] abbreviates: 8 μM, starting titer approx. 7.2 logs, 1 minute irradiation (Table 7).
[8] abbreviates: 16 μM, starting titer approx. 7.2 logs, 1 minute irradiation (Table 7).
The mark [9] stands for this setting: 32 μM, starting titer approx. 7.2 logs, 1 minute irradiation (Table 7).

On to `Cc1oc2c(C)c3oc(=O)cc(C)c3cc2c1CNCCCCN` [Compound 6, 4′-(6-amino-2-aza)hexyl-4,5′,8-trimethylpsoralen], for which the “R17 Log Kill” value is reported as greater than 6 log in data set [1] (8 μM, starting titer approx. 7.1 logs, 1 minute irradiation (Table 9)); greater than 6 log in data set [1] (setting [4]); greater than 6.1 log in data set [1] (setting [5]); greater than 6.1 log in data set [1] (setting [6]); greater than 6.1 log in data set [1] (64 μM, starting titer approx. 7.1 logs, 1 minute irradiation = 1.2 J/cm^2 (Table 8)). In addition, the “R17 inactivation efficiency compared with AMT or 8-MOP (in words)” value in data set [1] is recorded as “significantly higher inactivation efficiency than does AMT”. Moreover, in data set [2], the “GMP-140 expression, treated sample (PCD) against day 5 untreated control (in words)” value (shortened to “GMP-140 expression, treated sample (PCD)”) was “little or no difference”.

Regarding `Cc1oc2c(C)c3oc(=O)cc(C)c3cc2c1COCCN` [Compound 2, 4′-(4-amino-2-oxa)butyl-4,5′,8-trimethylpsoralen], the entries for the “R17 Log Kill” value in data set [1] (setting [7]), in data set [1] (setting [8]) and in data set [1] (setting [9]) were 3.8 log, greater than 6.2 log and greater than 6.2 log, respectively. The “R17 inactivation efficiency compared with AMT or 8-MOP (in words)” value in data set [1] is “significantly higher inactivation efficiency than does AMT”. In addition, the “revertant colonies per plate” value is 24 in data set [3] (TA98 + S9, 10 μg/plate); 35 in data set [3] (TA98 + S9, 50 μg/plate); 53 in data set [3] (TA98 + S9, 100 μg/plate); 69 in data set [3] (TA98 + S9, 250 μg/plate); 63 in data set [3] (TA98 + S9, 500 μg/plate); 28 in data set [3] (TA98 − S9, 10 μg/plate). Further, the “revertant colonies per plate” value was determined as 52 in data set [3] (TA98 − S9, 50 μg/plate); 39 in data set [3] (TA98 − S9, 100 μg/plate); 29 in data set [3] (TA98 − S9, 250 μg/plate); 6 in data set [3] (TA98 − S9, 500 μg/plate). The “GMP-140 expression, treated sample (PCD)” value in data set [2] is reported as “little or no difference”.

Turning to `Cc1cc(=O)oc2c(C)c3oc(COCCN)c(C)c3cc12` [Compound 18, 5′-(4-amino-2-oxa)butyl-4,4′,8-trimethylpsoralen], the “revertant colonies per plate” value in data set [3] (TA98 + S9, 10 μg/plate) is listed as 8; in data set [3] (TA98 + S9, 50 μg/plate) it was 6; in data set [3] (TA98 + S9, 100 μg/plate), 26; in data set [3] (TA98 + S9, 200 μg/plate) it was 42; in data set [3] (TA98 − S9, 10 μg/plate), 21; in data set [3] (TA98 − S9, 50 μg/plate) it was 303. For the same compound, the “revertant colonies per plate” value came to 390 in data set [3] (TA98 − S9, 100 μg/plate) and 225 in data set [3] (TA98 − S9, 200 μg/plate). The “GMP-140 expression, treated sample (PCD)” value in data set [2] was “notable increase above the control”.

On to `Cc1oc2c(C)c3oc(=O)cc(C)c3cc2c1CN` [AMT, 4′-Aminomethyl-4,5′,8-trimethylpsoralen, reference compound], for which the “R17 Log Kill” value was 2.7 log in data set [1] (setting [7]); greater than 6 log in data set [1] (setting [4]); 4.5 log in data set [1] (setting [5]); 4.6 log in data set [1] (setting [8]); greater than 6 log in data set [1] (32 μM, starting titer approx. 7.1 logs, 1 minute irradiation (Table 9)); 4.8 log in data set [1] (setting [6]). Moreover, in data set [1] (setting [9]), the “R17 Log Kill” value is recorded as greater than 6.2 log. For the same compound, the “R17 log kill (32 μM)” value in data set [1] (32 μM, starting titer approx. 7.5 logs, 1 minute irradiation) was greater than 6.7 log. In addition, the “revertant colonies per plate” value is listed as 1 in data set [3] (TA98 + S9, 0.1 μg/plate); 3 in data set [3] (TA98 + S9, 0.5 μg/plate); 21 in data set [3] (TA98 + S9, 1 μg/plate); 232 in data set [3] (TA98 + S9, 5 μg/plate); 403 in data set [3] (TA98 + S9, 10 μg/plate); 620 in data set [3] (TA98 + S9, 50 μg/plate). The “revertant colonies per plate” value in data set [3] (TA98 + S9, 100 μg/plate) was determined as 745; in data set [3] (TA98 + S9, 250 μg/plate), 933; in data set [3] (TA98 − S9, 0.1 μg/plate) it was 3; in data set [3] (TA98 − S9, 0.5 μg/plate), 5; in data set [3] (TA98 − S9, 1 μg/plate), 5; in data set [3] (TA98 − S9, 5 μg/plate), 16. For the same compound, the “revertant colonies per plate” value in data set [3] (TA98 − S9, 10 μg/plate) is reported as 20; in data set [3] (TA98 − S9, 50 μg/plate), 69; in data set [3] (TA98 − S9, 100 μg/plate), 114; in data set [3] (TA98 − S9, 250 μg/plate), 112.
